Source: ChEMBL document CHEMBL1629484, “1,2-diamino-ethane-substituted-6,7,8,9-tetrahydro-5H-pyrimido[4,5-d]azepines as TRPV1 antagonists with improved properties” (Bioorg Med Chem Lett, 2010)
Converted amounts (≈) assume the structure as drawn. The source made the active and inactive calls. No cut-off for these calls is given here.

Key:
[1] = Aqueous equilibrium solubility of compound in phosphate buffer at pH 2; format: physicochemical
[2] = biological target: T1, Transient receptor potential cation channel subfamily V member 1 (Rattus norvegicus, UniProt O35433); test: Antagonist activity at rat TRPV1 expressed in HEK293 cells assessed as inhibition of capsaicin-induced intracellular Ca2+ level by FLIPR assay; format: functional, cell-based
T1 sequence (O35433 whole entry): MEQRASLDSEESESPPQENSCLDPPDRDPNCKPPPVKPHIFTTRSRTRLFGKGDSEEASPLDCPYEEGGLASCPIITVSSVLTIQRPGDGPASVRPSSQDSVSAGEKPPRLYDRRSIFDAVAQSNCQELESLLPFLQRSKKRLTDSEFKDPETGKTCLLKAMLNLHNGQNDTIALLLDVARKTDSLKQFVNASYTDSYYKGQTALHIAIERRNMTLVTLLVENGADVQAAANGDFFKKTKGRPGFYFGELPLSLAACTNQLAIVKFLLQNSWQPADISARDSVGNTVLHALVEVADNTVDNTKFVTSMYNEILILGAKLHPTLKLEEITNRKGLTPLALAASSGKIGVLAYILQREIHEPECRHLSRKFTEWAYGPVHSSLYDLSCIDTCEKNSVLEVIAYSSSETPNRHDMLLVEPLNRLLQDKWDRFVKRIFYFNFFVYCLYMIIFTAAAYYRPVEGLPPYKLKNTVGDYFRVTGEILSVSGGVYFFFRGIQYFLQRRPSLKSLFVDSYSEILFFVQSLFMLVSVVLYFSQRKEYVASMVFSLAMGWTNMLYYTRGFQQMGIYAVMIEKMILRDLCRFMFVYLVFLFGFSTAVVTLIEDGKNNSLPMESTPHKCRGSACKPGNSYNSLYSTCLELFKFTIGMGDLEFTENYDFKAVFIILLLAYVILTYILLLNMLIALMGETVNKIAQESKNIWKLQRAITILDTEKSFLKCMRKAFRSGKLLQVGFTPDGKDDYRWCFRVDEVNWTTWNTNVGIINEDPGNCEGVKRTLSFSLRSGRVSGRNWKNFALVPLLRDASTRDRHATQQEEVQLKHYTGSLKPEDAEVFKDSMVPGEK

[3] = biological target: T2, Transient receptor potential cation channel subfamily V member 1 (Homo sapiens, UniProt Q8NER1); test: Antagonist activity at human TRPV1 expressed in HEK293 cells assessed as inhibition of capsaicin-induced intracellular Ca2+ level by FLIPR assay; format: functional, cell-based
T2 sequence (Q8NER1 whole entry): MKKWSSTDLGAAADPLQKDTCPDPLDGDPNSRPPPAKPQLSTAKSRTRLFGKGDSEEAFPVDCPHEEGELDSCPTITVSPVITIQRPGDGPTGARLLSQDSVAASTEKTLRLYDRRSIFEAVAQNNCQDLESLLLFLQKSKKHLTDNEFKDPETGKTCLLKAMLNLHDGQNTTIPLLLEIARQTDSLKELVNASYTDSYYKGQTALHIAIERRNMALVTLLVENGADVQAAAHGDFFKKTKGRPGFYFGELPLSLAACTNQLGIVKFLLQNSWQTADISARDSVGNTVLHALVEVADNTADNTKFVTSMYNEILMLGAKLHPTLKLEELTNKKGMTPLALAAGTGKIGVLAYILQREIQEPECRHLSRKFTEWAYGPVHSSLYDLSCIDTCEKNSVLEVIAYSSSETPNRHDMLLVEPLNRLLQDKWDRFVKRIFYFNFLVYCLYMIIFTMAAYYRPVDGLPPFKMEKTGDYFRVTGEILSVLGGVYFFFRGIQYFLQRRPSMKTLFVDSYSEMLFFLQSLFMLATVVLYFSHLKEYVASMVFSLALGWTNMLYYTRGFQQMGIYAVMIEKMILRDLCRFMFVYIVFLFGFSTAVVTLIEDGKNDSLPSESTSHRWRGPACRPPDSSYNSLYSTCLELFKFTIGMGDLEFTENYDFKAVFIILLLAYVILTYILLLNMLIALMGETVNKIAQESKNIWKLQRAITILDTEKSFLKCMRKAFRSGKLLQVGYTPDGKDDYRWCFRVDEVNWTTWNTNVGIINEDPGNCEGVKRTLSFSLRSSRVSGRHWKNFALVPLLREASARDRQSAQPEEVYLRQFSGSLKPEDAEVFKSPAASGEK

[4] = Aqueous equilibrium solubility of compound in simulated intestinal fluid at pH 6.8; format: physicochemical
[5] = Half life in fasted Sprague-Dawley rat at 0.5 mg/kg, iv and 2 mg/kg, po; format: ADME, organism-based; settings: in vivo
[6] = Clearance in fasted Sprague-Dawley rat at 0.5 mg/kg, iv and 2 mg/kg, po; format: ADME, organism-based; settings: in vivo
[7] = Volume of distribution at steady state in fasted Sprague-Dawley rat at 0.5 mg/kg, iv and 2 mg/kg, po; format: ADME, organism-based; settings: in vivo, read-out: Vdss
[8] = system: Rattus norvegicus; test: Analgesic activity against carrageenan-induced thermal hyperalgesia in rat at 5 mg/kg, po administered 1 hr before carrageenan challenge; format: functional, organism-based; design: dose 5 mg/kg
[9] = Tmax in fasted Sprague-Dawley rat at 2 mg/kg, po; format: ADME, organism-based; design: dose 2 mg/kg, route oral; settings: in vivo
[10] = system: Rattus norvegicus; test: Analgesic activity against carrageenan-induced thermal hyperalgesia in rat assessed as maximal possible effect at 30 mg/kg, po administered 3 hrs post-carrageenan challenge; format: functional
[11] = Oral bioavailability in fasted Sprague-Dawley rat at 2 mg/kg; format: ADME, organism-based; settings: in vivo
[12] = Terminal plasma concentration in rat at 30 mg/kg, po administered 5 hrs post-carrageenan challenge; format: ADME, organism-based; design: dose 30 mg/kg, route oral; settings: read-out: Cp(T)
[13] = biological target: T1, Transient receptor potential cation channel subfamily V member 1; test: Inhibition of rat TRPV1 expressed in HEK cells; format: cell-based, HEK293
[14] = Cmax in fasted Sprague-Dawley rat at 2 mg/kg, po; format: ADME, organism-based; design: dose 2 mg/kg, route oral; settings: in vivo
[15] = Terminal plasma concentration in rat at 5 mg/kg, po administered 5 hrs post-carrageenan challenge; format: ADME, organism-based; design: dose 5 mg/kg, route oral; settings: read-out: Cp(T)
[16] = biological target: T2, Transient receptor potential cation channel subfamily V member 1; test: Inhibition of human TRPV1 expressed in HEK cells; format: cell-based, HEK293
[17] = AUC (infinity) in fasted Sprague-Dawley rat at 2 mg/kg, po; format: ADME, organism-based; design: time infinity, dose 2 mg/kg, route oral; settings: plasma
[18] = biological target: T1, Transient receptor potential cation channel subfamily V member 1; test: Displacement of [3H]RTX from rat TRPV1 expressed in HEK cells; format: cell-based, HEK293
[19] = Clearance in rat; format: ADME, organism-based; settings: in vivo

SMILES	solubility thermodynamic [1] [mg/mL]	IC50 [2] [µM]	IC50 [3] [µM]	solubility thermodynamic [4] [mg/mL]	other results
OCCN1CCN(c2nc3c(c(Nc4ccc(C(F)(F)F)cc4)n2)CCN(c2ncccc2C(F)(F)F)CC3)CC1	> 0.233	1.16	0.498	0.004 (≈ 6.88 µM)	
CN(c1nc2c(c(Nc3ccc(C(F)(F)F)cc3)n1)CCN(c1ncccc1C(F)(F)F)CC2)C1CCCN(C(=O)OC(C)(C)C)C1 (stereo not drawn)	0.001 (≈ 1.5 µM)	0.097	0.053	0.004 (≈ 6.01 µM)	
CC(C)N1CCN(c2nc3c(c(Nc4ccc(C(F)(F)F)cc4)n2)CCN(c2ncccc2C(F)(F)F)CC3)CC1	> 0.232	0.386		0.002 (≈ 3.45 µM)	half-life [5]: 1.5 h; clearance [6]: 4.8 L/h/kg; Vd [7]: 5.1 L/kg
FC(F)(F)c1ccc(Nc2nc(N3CCN(C4CCCC4)CC3)nc3c2CCN(c2ncccc2C(F)(F)F)CC3)cc1	0.221 (≈ 365 µM)	0.123	0.015	0.011 (≈ 18.2 µM)	
FC(F)(F)c1ccc(Nc2nc(N3CCN(C4CC4)CC3)nc3c2CCN(c2ncccc2C(F)(F)F)CC3)cc1	0.23 (≈ 398 µM)	0.045	0.011	0.009 (≈ 15.6 µM)	half-life [5]: 1.6 h; clearance [6]: 1.3 L/h/kg; Vd [7]: 1 L/kg
CC(=O)NC1CCN(c2nc3c(c(Nc4ccc(C(F)(F)F)cc4)n2)CCN(c2ncccc2C(F)(F)F)CC3)C1 (stereo not drawn)	0.202 (≈ 349 µM)	0.41	0.15	0.019 (≈ 32.8 µM)	
CC(C)(C)OC(=O)N1CCCC(Nc2nc3c(c(Nc4ccc(C(F)(F)F)cc4)n2)CCN(c2ncccc2C(F)(F)F)CC3)C1 (stereo not drawn)	0.001 (≈ 1.53 µM)	0.239	0.14	0.014 (≈ 21.5 µM)	
CN(C)[C@H]1CCN(c2nc3c(c(Nc4ccc(C(F)(F)F)cc4)n2)CCN(c2ncccc2C(F)(F)F)CC3)C1	> 0.226	0.586	0.185	0.057 (≈ 101 µM)	
CCC(CC)N1CCN(c2nc3c(c(Nc4ccc(C(F)(F)F)cc4)n2)CCN(c2ncccc2C(F)(F)F)CC3)CC1	0.243 (≈ 400 µM)	0.185	0.041	0.109 (≈ 179 µM)	
CCN1CCN(c2nc3c(c(Nc4ccc(C(F)(F)F)cc4)n2)CCN(c2ncccc2C(F)(F)F)CC3)CC1	> 0.226	0.506	0.132	0.006 (≈ 10.6 µM)	
FC(F)(F)c1ccc(Nc2nc(NCc3ccccn3)nc3c2CCN(c2ncccc2C(F)(F)F)CC3)cc1	0.224 (≈ 400 µM)	1.34	0.476	0.001 (≈ 1.79 µM)	
CN1CCCC(N(C)c2nc3c(c(Nc4ccc(C(F)(F)F)cc4)n2)CCN(c2ncccc2C(F)(F)F)CC3)C1 (stereo not drawn)	> 0.232	> 5	> 5	> 0.232	
CN1CCCCC1CNc1nc2c(c(Nc3ccc(C(F)(F)F)cc3)n1)CCN(c1ncccc1C(F)(F)F)CC2 (stereo not drawn)	> 0.277	2.28	1.76	0.254 (≈ 438 µM)	
CN(C)CCN(C)c1nc2c(c(Nc3ccc(C(F)(F)F)cc3)n1)CCN(c1ncccc1C(F)(F)F)CC2	> 0.221	4.45	2.67	0.21 (≈ 379 µM)	
CC(C)CN1CCN(c2nc3c(c(Nc4ccc(C(F)(F)F)cc4)n2)CCN(c2ncccc2C(F)(F)F)CC3)CC1	> 0.237	0.089	0.011	0.011 (≈ 18.5 µM)	half-life [5]: 1.8 h; Activity [8]: Active; Tmax [9]: 2.3 h; Activity [10]: 100%; bioavailability [11]: 21%; concentration at 5 h [12]: 1.05 µM; clearance [6]: 0.7 L/h/kg; IC50 [13]: 0.063 µM; Cmax [14]: 0.3 µM; Vd [7]: 0.5 L/kg; concentration at 5 h [15]: 0.277 µM; IC50 [16]: 0.067 µM; AUC(0-inf) [17]: 0.598 µg·h/mL; IC50 [18]: 0.33 µM
FC(F)(F)c1ccc(Nc2nc(N3CCNCC3)nc3c2CCN(c2ncccc2C(F)(F)F)CC3)cc1	0.215 (≈ 400 µM)	> 5		0.158 (≈ 294 µM)	

SMILES	solubility thermodynamic [1] [mg/mL]	IC50 [2] [µM]	IC50 [3] [µM]	solubility thermodynamic [4] [mg/mL]	other results
CNC1CCN(c2nc3c(c(Nc4ccc(C(F)(F)F)cc4)n2)CCN(c2ncccc2C(F)(F)F)CC3)C1 (stereo not drawn)	> 0.22	> 5	2.79	0.233 (≈ 422 µM)	
COCCN1CCN(c2nc3c(c(Nc4ccc(C(F)(F)F)cc4)n2)CCN(c2ncccc2C(F)(F)F)CC3)CC1	> 0.238	0.207	0.065	0.006 (≈ 10.1 µM)	
FC(F)(F)c1ccc(Nc2nc(NC3CCCNC3)nc3c2CCN(c2ncccc2C(F)(F)F)CC3)cc1 (stereo not drawn)	> 0.235	> 5	> 5	0.203 (≈ 368 µM)	
CC(C)(C)OC(=O)N1CCCCC1CNc1nc2c(c(Nc3ccc(C(F)(F)F)cc3)n1)CCN(c1ncccc1C(F)(F)F)CC2 (stereo not drawn)	0.003 (≈ 4.51 µM)	0.23	0.25	0.003 (≈ 4.51 µM)	
CN1CCN(c2nc3c(c(Nc4ccc(C(F)(F)F)cc4)n2)CCN(c2ncccc2C(F)(F)F)CC3)CC1	> 0.221	0.506		0.193 (≈ 350 µM)	
FC(F)(F)c1ccc(Nc2nc(N3CCN(C4CCC4)CC3)nc3c2CCN(c2ncccc2C(F)(F)F)CC3)cc1	> 0.237	0.161	0.024	0.002 (≈ 3.38 µM)	
CC(=O)N(C)C1CCN(c2nc3c(c(Nc4ccc(C(F)(F)F)cc4)n2)CCN(c2ncccc2C(F)(F)F)CC3)C1 (stereo not drawn)	0.021 (≈ 35.4 µM)	0.46	0.062	0.002 (≈ 3.37 µM)	
CN(c1nc2c(c(Nc3ccc(C(F)(F)F)cc3)n1)CCN(c1ncccc1C(F)(F)F)CC2)C1CCCNC1 (stereo not drawn)	> 0.241	1.54	3.6	0.211 (≈ 373 µM)	
CN(C)CCN1CCN(c2nc3c(c(Nc4ccc(C(F)(F)F)cc4)n2)CCN(c2ncccc2C(F)(F)F)CC3)CC1	> 0.243	2.6	2	> 0.243	
CN1CCCC(Nc2nc3c(c(Nc4ccc(C(F)(F)F)cc4)n2)CCN(c2ncccc2C(F)(F)F)CC3)C1 (stereo not drawn)	0.204 (≈ 361 µM)	> 5	3.08	0.226 (≈ 400 µM)	
NC1CCN(c2nc3c(c(Nc4ccc(C(F)(F)F)cc4)n2)CCN(c2ncccc2C(F)(F)F)CC3)C1 (stereo not drawn)	> 0.215	> 5	3.7	> 0.215	
CN(CC1CCCCN1C)c1nc2c(c(Nc3ccc(C(F)(F)F)cc3)n1)CCN(c1ncccc1C(F)(F)F)CC2 (stereo not drawn)	> 0.283	> 5	3.33	> 0.283	
FC(F)(F)c1ccc(Nc2nc(N3CCOCC3)nc3c2CCN(c2ncccc2C(F)(F)F)CC3)cc1					clearance [19]: 3.1 L/h/kg
CN(C)[C@@H]1CCN(c2nc3c(c(Nc4ccc(C(F)(F)F)cc4)n2)CCN(c2ncccc2C(F)(F)F)CC3)C1	> 0.226	1.04	0.243	0.057 (≈ 101 µM)	
FC(F)(F)c1ccc(Nc2nc(NCC3CCCCN3)nc3c2CCN(c2ncccc2C(F)(F)F)CC3)cc1 (stereo not drawn)	> 0.272	> 5	0.1	0.237 (≈ 419 µM)	
